Assay results taken from ChEMBL document CHEMBL3507680, “University of Dundee, Gates Library screen for HepG2 cell viability”.

Test: Human HepG2 cell viability assay in 384 well format
Type: toxicity, cell-based
Design: dose 125 nL, time 70.5 hour; cytotoxicity at 70.5 h: concentration not given beside the values
Settings: HepG2 cells, read-out: Inhibition

Row | SMILES | cytotoxicity at 70.5 h [%]
1 | CCC(CO)N(Cc1ccccn1)Cc1ccc(-c2ccn[nH]2)s1 (stereo not given) | -14
2 | CNC(=O)C1CCN(c2ncc3c(n2)CCN3c2ccccc2)C1 (stereo not given) | -4.33
3 | Cc1nc2c(c(N3C[C@@H](C)[C@@](C)(O)C3)n1)CCC2 | 22.5
4 | CC(C)[C@@H]1CN(c2ccc(F)cn2)C[C@H]1NS(C)(=O)=O | 12.1
5 | CN1CCC(N(C)C[C@H]2CC[C@@H](Cc3cccc(O)c3)O2)CC1 | 43.7
6 | COCCC1(C(=O)O)CCCN(CCOCc2ccccc2)C1 (stereo not given) | -3.38
7 | Cc1cc2c(N3CCCC(OCc4cccnc4)C3)ncnc2s1 (stereo not given) | -9.75
8 | Nc1nc(NCCO)cc(N2CCc3c([nH]c4ccccc34)C2)n1 | -7.97
9 | CC(C)c1cc(NCC(O)c2ccncc2)n2nccc2n1 (stereo not given) | 14.4
10 | Cc1cc(C)n(Cc2cc(C(=O)N3CCCC3c3ccccn3)n[nH]2)n1 (stereo not given) | -17.2
11 | Cc1ccc(OCC(O)CNC(=O)C2(c3ccc(F)cc3)CC2)cc1 (stereo not given) | -7.12
12 | Cc1c(C(=O)N2CCN(C)[C@@H]3CS(=O)(=O)C[C@@H]32)[nH]c2ccc(F)cc12 | -1.69
13 | CCCN1CCCC2(CCN(Cc3cncn3C3CCCC3)C2)C1=O (stereo not given) | -8.03
14 | Cc1nc2c(c(N3CCCC(OCc4ccccn4)C3)n1)CCNCC2 (stereo not given) | -14.9
15 | CCSCCC(=O)N1CCc2[nH]nc(COc3ccccc3)c2C1 | 23.8
16 | CCn1cc(CN(C)C(=O)C(c2ccccc2C)N(C)C)cn1 (stereo not given) | -1.5
17 | COCC(=O)N1CCC(Oc2cccc(C)c2)CC1 | -16
18 | CN(CCCO)c1nc(-c2ccc(C(N)=O)cc2)nc2c1CCNC2 | -13.3
19 | CCc1csc(CNc2cc(C)nc(-c3cccnc3)n2)n1 | -7.79
20 | O=C(CCn1ccccc1=O)N1CCN(Cc2cccc(Cl)c2)CC1 | -12.6
21 | O=C(NC1CCCCC1)N1CCC(n2cc(-c3ccccn3)nn2)CC1 | -6.7
22 | CC1=CCN(S(=O)(=O)c2cccc(C(=O)N3CCCN(C)CC3)c2)CC1 | -10.6
23 | CCn1c(N)nc2cc(C(=O)NCCc3nnc(C)s3)cnc21 | -24.8

Row | SMILES | cytotoxicity at 70.5 h [%]
24 | CC(=O)N1CCC(N2CCOC(CC3CCCCC3)C2)CC1 (stereo not given) | -4.68
25 | CN(C)c1nc2c(c(N3CCc4ccccc4C3)n1)CCNC2 | 0.802
26 | C=C(C)COc1ccccc1CNCCc1c[nH]cn1 | 2.66
27 | O=C(NCCN1CCc2ccccc21)c1cc(-c2ccc(O)cc2)n[nH]1 | 46.5
28 | COc1ccc(CC2(CO)CCN(c3cc(C#N)ccn3)CC2)cc1 | -3.42
29 | CCc1noc(CN(CC)C(=O)c2ccc3ncsc3c2)n1 | 4.54
30 | C[C@@H]1CN(C(=O)c2ccc(=O)[nH]c2)CC[C@@]1(O)C1CCOCC1 | 1.36
31 | CCOCCNc1nc(-c2ccncc2)nc2c1CCNCC2 | -4.23
32 | COc1cccc(Cn2ncc(N(C)CCc3ccccc3)cc2=O)c1 | -6.35
33 | Cc1oncc1S(=O)(=O)N1CCCC(C)(Cc2ccc3c(c2)OCO3)C1 (stereo not given) | 14.3
34 | CC(C)CCC1=NC2(CCN(C(=O)CN3CCCC3=O)CC2)C(=O)N1 | -5.52
35 | O=S(=O)(CC1CC1)c1ncc(CN2CCSCC2)n1CC1CCCO1 (stereo not given) | -6.13
36 | CCSC(C)c1nc(-c2ccc(C)nn2)no1 (stereo not given) | 4.73
37 | CN(C)c1nc(NCCCN2CCc3ccccc32)ncc1F | 38.5
38 | CN(Cc1nc(Cc2cccc(C(F)(F)F)c2)no1)C1CCOCC1 | -5.63
39 | Cc1cc(C)nc(N2CCC(c3nnc(CN(C)C)n3C3CC3)CC2)n1 | -5.18
40 | CCOc1cc2c(cc1CN1CCC3(CCCNC3=O)C1)CCC2 (stereo not given) | 30
41 | CCCc1cc(NCc2ccc(CO)cc2)n2nccc2n1 | 1.98
42 | CCc1c(C)nn(CCN2CC3(CCOC3)CCC2=O)c1C (stereo not given) | -6.21
43 | CCOC(=O)C1CCCN(Cc2c[nH]nc2-c2cc3ccccc3o2)C1 (stereo not given) | 18.3
44 | CCN(C)S(=O)(=O)N1CCCC(CO)(CC=C(C)C)C1 (stereo not given) | -2.99
45 | CN1CCCc2c1nc1c(c2N)CCCC1 | 23
